Columns and labels:
pancreatic lipase (PL) = biological target: T1, pancreatic lipase (PL) (Sus scrofa, UniProt P00591); assay: Inhibition of PL, MUF oleate hydrolysis; type: biochemical; settings: mean values of at least 2 independent tests
T1 construct: purchased Sigma-Aldrich
T1 sequence (P00591 1-450): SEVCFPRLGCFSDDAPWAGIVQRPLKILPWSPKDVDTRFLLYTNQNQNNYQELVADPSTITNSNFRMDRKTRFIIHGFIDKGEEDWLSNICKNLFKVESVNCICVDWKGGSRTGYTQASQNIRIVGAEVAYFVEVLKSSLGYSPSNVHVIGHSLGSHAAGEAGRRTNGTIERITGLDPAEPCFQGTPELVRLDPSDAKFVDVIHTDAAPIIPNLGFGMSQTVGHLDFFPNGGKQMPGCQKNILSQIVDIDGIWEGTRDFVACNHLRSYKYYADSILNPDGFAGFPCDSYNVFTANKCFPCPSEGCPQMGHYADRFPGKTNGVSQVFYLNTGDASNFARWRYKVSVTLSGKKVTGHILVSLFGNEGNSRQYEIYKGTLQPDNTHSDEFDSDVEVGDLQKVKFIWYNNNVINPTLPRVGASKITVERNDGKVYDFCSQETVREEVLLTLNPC
Description: (§1) Lipogenesis is perceived as the storage of triglycerides in adipocytes. The inhibition of this storage can take place by means of the inhibition of the activity of extracellular lipoprotein lipase (LPL) in that the hydrolysis of extracellular triglycerides and therefore the absorption of free fatty acids by adipocytes are reduced. As a preliminary test, the inhibition of pancreatic lipase (PL) is investigated.
PL (Sigma-Aldrich), in the presence of test substances in different use concentrations has methylumbelliferyl oleate (MUF oleate) added as a substrate. Fluorescent methylumelliferon (MUF), is produced by hydrolysis of the MUF oleate by PL and is quantified. The inhibition of the hydrolysis of the MUF oleate is a measure of the inhibition of activity of the PL.
[formula] wherein MUF test substance=MUF concentration of the wells with test substance and with PL MUF control=MUF concentration of the wells without test substance, but with PL MUF control without PL=MUF concentration of the wells without test substance and without PL
The IC50 is calculated from the inhibition of the PL [%] in a series of dilutions of tested samples. This is the concentration, at which the activity of the PL is 50% inhibited.

lipoprotein lipase (LPL) = biological target: T2, lipoprotein lipase (LPL) (Mus musculus, UniProt P11152); assay: Inhibition of LPL (lipogenesis assay), MUF oleate hydrolysis; type: biochemical; settings: LPL obtained from differentiated 3T3-L1 cells; mean values of at least 2 independent tests
T2 construct: endogenous in cells; host or cells: differentiated 3T3-L1 cells (mouse); heparin-released supernatant
T2 sequence (P11152 28-474): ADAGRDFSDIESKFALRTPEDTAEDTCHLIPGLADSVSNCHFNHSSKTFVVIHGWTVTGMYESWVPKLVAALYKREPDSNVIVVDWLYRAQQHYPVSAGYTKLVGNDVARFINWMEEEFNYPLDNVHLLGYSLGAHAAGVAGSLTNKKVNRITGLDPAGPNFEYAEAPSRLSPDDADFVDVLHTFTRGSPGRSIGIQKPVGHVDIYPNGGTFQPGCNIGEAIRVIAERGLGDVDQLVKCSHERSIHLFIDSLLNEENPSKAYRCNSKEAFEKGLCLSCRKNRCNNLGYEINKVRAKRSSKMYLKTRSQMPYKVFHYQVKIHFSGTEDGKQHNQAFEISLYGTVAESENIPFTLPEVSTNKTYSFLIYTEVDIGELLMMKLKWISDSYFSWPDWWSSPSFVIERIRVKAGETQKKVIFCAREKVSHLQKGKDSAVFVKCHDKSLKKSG
Description: as §1
The results of the inhibition of the PL are used as a preliminary test and are confirmed on LPL. To obtain LPL, 3T3-L1 cells (mouse embryonic fibroblast-like adipocyte cell line) are seeded in a 6-well plate with collagen I-coating in a concentration of 3×10^5 cells/well. The cultivation and differentiation of the cells takes place analogously to the details in Example 2 (adipogenesis assay). During the differentiation LPL is increasingly expressed. The LPL is present in a membrane-bound state and is released by one hour incubation with heparin solution at 2-8° C. to the supernatant of the cells.
The LPL thus obtained, in the presence of test substances in different use concentrations, has methylumbelliferyl oleate (MUF oleate) added as the substrate. Fluorescent methylumbelliferyl (MUF) is produced by hydrolysis of the MUF oleate by LPL and is quantified. The inhibition of the hydrolysis of the MUF oleate is a measure of the inhibition of the activity of the LPL and therefore the lipogenesis.
[formula] wherein MUF test substance=MUF concentration of the wells with test substance and with LPL MUF control=MUF concentration of the wells without test substance, but with LPL MUF control without LPL=MUF concentration of the wells without test substance and without LPL
The IC50 is calculated from the inhibition of the LPL [%] in a series of dilutions of tested samples. This is the concentration at which the activity of the LPL and therefore the lipogenesis is 50% inhibited.

3T3-L1 cells = assay: Lipolysis assay, in vitro on 3T3-L1 cells, free glycerol release; type: cell-based; settings: Mus musculus; differentiated 3T3-L1 cells, about 20 hours of incubation; mean values from at least 2 independent tests; read-out: Stimulation of lipolysis EC50
Experimental: 3T3-L1 cells (mouse embryonic fibroblast-like adipocyte cell line) are seeded in a 48-well plate with collagen I-coating in a concentration of 3×10^4 cells/well. The cultivation and differentiation of the cells takes place analogously to the details in Example 2 (adipogenesis assay).
Various concentrations of the test substances are applied to the cells in DMEM, with bovine serum albumen added. After about 20 hours of incubation, the quantification of free glycerol in the supernatant of the cells takes place, which is released by the cells after hydrolysis of triglycerides in the cells and is a measure of the lipolysis of the cells. The quantification of the free glycerol is carried out based on an enzymatic method with a free glycerol reagent.
The stimulation of the lipolysis in the presence of test substances is calculated according to the following equation:
[formula] wherein A test substance=absorption of the wells with test substance and with cells A test substance without cells=absorption of the wells with test substance without cells (absorption control) A control=absorption of the wells without test substance, but with cells A control without cells=absorption of the wells without test substance and without cells
The EC50 is calculated from the lipolysis stimulation [%] in a series of dilutions of tested samples. This is the concentration at which the lipolysis is 50% stimulated.

3T3 cells = assay: ATP assay, inhibition of proliferation; type: cell-based; settings: Mus musculus, NIH3T3, 48 h, non-cytotoxic dilutions, mean values of at least 2 independent tests
Experimental: 3T3 cells (mouse […] fibroblasts) were seeded in 96-well plates. After 24 h cultivation at 37° C. and 5% CO2 in DMEM (Dulbecco's Modified Eagle Medium), cells were treated with test substances for another 48 h. […] ATP content in the cells is measured by
The inhibition of proliferation was calculated by:
[formula] wherein RLU test substance=relative luminescent units of the wells with test substance and with cells RLU control=relative luminescent units of the wells without test substance, but with cells RLU control without cells=relative luminescent units of the wells without test substance and without cells
The IC50 is calculated from the proliferation inhibition [%] in a series of non-cytotoxic dilutions of tested samples. This is the concentration at which the proliferation is 50% inhibited.

Structure (SMILES) | IC50 (pancreatic lipase (PL)) [µM] | IC50 (lipoprotein lipase (LPL)) [mM] | EC50 (3T3-L1 cells) [µM] | IC50 (3T3 cells) [µM]
CCCCNC(=O)OC1CCCCC1C(C)C (stereo not drawn) [BIO1841, Butyl-carbamic acid 2-isopropyl-cyclohexyl ester] | 780 | 1.2 | 230 | 255
CCC(C)NC(=O)OC1CCCC(C)C1C (stereo not drawn) [BIO1845, sec-Butyl-carbamic acid 2,3-dimethyl-cyclohexyl ester] | 720 | 1.44 | 190 | 345
CCCCNC(=O)OC1C(C)CCC(C)C1C (stereo not drawn) [BIO1617, Butyl-carbamic acid 2,3,6-trimethyl-cyclohexyl ester] | 1380 | 0.61 | 980 | 244
